Source: publication PMC11082943, “Rpt5-Derived Analogs Stimulate Human Proteasome Activity in Cells and Degrade Proteins Forming Toxic Aggregates in Age-Related Diseases” (International Journal of Molecular Sciences, 2024)
No end group written: not given here.

What was measured:
[1] = test system: T1, proteasome in HEK293T cells; experiment: 20S activity in cellulo (TAS3 assay); format: cell-based, human; conditions: 10 µM TAS3 in KRBH buffer, 30 min preincubation with compound, 37 °C, linear regression of last 60 min, triplicate, Btz 10 µM
T1 construct: HEK293T cells were seeded in black 96-well plates; endogenous in cells; host or cells: HEK293T
Description: HEK293T cells were seeded in black 96-well plates at 7 × 10^3 cells/well and incubated in DMEM supplemented with 10% FBS and penicillin/streptomycin (100 units/mL/100 µg/mL) at 37 °C with 5% CO2. […] After this time, the cells were treated with the tested peptides/peptidomimetics (1–50 µM in medium). Each sample was prepared in triplicate. The plates were incubated for an additional 30 min. Subsequently, the medium was removed, and 100 µL of 10 µM TAS3 in Krebs-Ringer Bicarbonate (KRBH) buffer, containing the tested modulator, was added to the wells. The fluorescence intensity was monitored every 2 min over a 90 min period at 37 °C using a Tecan Infinite M200 Pro plate reader (Tecan Trading AG, Männedorf, Switzerland) with the excitation and emission wavelengths set at 485 nm and 535 nm, respectively. A linear regression analysis was performed for the last 60 min of the measurement. Any increase or decrease in activity of the 20S was compared to that of the control (cells incubated with TAS3 probe in KRBH buffer) and calculated based on the change in fluorescence units per time [40]. To determine statistical significance, ordinary one-way ANOVA was used.

HEK293T cells = format: in vitro ADME, human
Description: One of the obstacles in the development of peptide drugs is their low cell permeability. To evaluate if the peptide-based proteasome activators can cross the cell membrane, we synthesized an analog of peptide 7; labeled the ε-amine group of the N-terminal lysine residue with a fluorescent dye, 5/6-carboxytetramethylrhodamine (TAMRA); and used confocal microscopy to detect its entry into cells. […] Therefore, 7 was combined with the HIV-1 TAT protein-derived, membrane-penetrating peptide sequence GRKKRRQRRR (TAT 48–57), separated by the 20S proteasome recognition sequence, LLVY.
TAMRA fluorescent tags were attached to the N-terminal […] group of the lysine residue of compound 7 and the ε-amino group of the corresponding lysine residue in compound TAT-7 before the final deprotection and cleavage of the compounds from the solid support. To achieve the selective attachment of the label to the proper ε-amino group, the Fmoc-Lys(Mtt)-OH was used in this position during peptide elongation. […]
Human embryonic kidney cells (HEK293T, a generous gift of Prof. Grzegorz Węgrzyn, Faculty of Biology, University of Gdańsk, Gdańsk, Poland) were maintained in Dulbecco’s Modified Eagle Medium (DMEM) supplemented with 10% Fetal Bovine Serum (FBS) and penicillin/streptomycin (100 units/mL/100 µg/mL), at 37 °C with 5% CO2. […] The images were merged, and the colocalization of the dye emission was analyzed.

Row | ΔRFU/min (change in fluorescence units per minute, TAS3 probe) [1] | cell permeability / cellular internalization (result in words) (HEK293T cells) | Compound
1 | 3.7 RFU/min |  | CC(C)C[C@H](NC(=O)[C@H](Cc1ccccc1)NC(=O)c1cnccn1)B(O)O [Btz, bortezomib]
2 |  | only slightly cell permeable | KKKANLQYYA [compound 7]
